Reference: patent US20260139254A1, “INTERFERING RNA FOR INHIBITING TOP1 GENE EXPRESSION AND USE THEREOF” (JENKEM TECHNOLOGY CO., LTD. (BEIJING), priority 2022, published 2026)

Legend:
Assay type in all cases: cell-based, human
TOP1 mRNA [1] = experiment: Inhibitory effect of siTOP1 on TOP1 mRNA in A375 cells (Lipofectamine RNAiMAX transfection, Q-PCR); settings: A375, siRNA 50 nM, 48 h after transfection
Procedure: • 1) On the day before transfection, A375 melanoma cells were seeded into a 24-well plate at 6×10^4 to 8×10^4 cells/well, the culture medium being 500 μL of DMEM containing 10% FBS and 1% Penicillin-Streptomycin, and the plate was placed in an incubator with 5% CO2 at 37° C. for 24 h to allow the cells to adhere to the wall. Three replicate wells were made for each group. • 2) On the day of transfection, the culture medium was changed to 450 μL of DMEM culture medium without antibiotics (containing 10% FBS). • 3) The siRNAs were diluted with 25 μL of Opti-MEM culture medium; the siNC (the siNC (reference: O Sordet et al., 2008) having the target sequence of 5′-TTCTCCGAACGTGTCACGT-3′ (SEQ ID NO: 46)) at the same concentration was the negative control group; Lipofectamine™ RNAiMAX (Lipo) transfection reagent was diluted with another 25 μL of Opti-MEM culture medium and left to stand at room temperature for 5 min; and the two dilutions were uniformly mixed and left to stand at room temperature for 5 min. • 4) 50 μL of the mixed solution described above was added to each well to obtain a final transfection volume of 500 μL. and the working concentration of the siRNA was 50 nM. • 5) After the transfection, the cells were cultured for 48 h and then collected.
• 1) RNA was extracted using an Eastep™ Super total RNA extraction kit; 300 μL of RNA lysis solution and 300 μL of RNA diluent were added; and the mixture was uniformly mixed and then transferred to a 1.5 mL centrifuge tube. • 2) The mixture was centrifuged at 14000 g for 5 min, and the supernatant was carefully pipetted into a new 1.5 mL centrifuge tube. • 3) A 0.5-fold volume of absolute ethanol was added, and the mixture was uniformly mixed by allowing the tube to be repeatedly upside down 15-20 times. Subsequently, the mixture was transferred to a centrifuge column and centrifuged at 12000 g for 1 min. The filtrate was discarded. • 4) 600 μL of RNA wash buffer was added, and the mixture was centrifuged at 12000 g for 1 min. The filtrate was discarded. • 5) 50 μL of DNase I incubation buffer was added, followed by DNA digestion at room temperature for 15 min. • 6) 600 μL of RNA wash buffer was added, the mixture was centrifuged at 12000 g for 1 min, and the filtrate was discarded. This procedure was repeated once. • 7) The mixture was centrifuged at 14000 g for 2 min to remove the residual RNA wash buffer, and then the centrifuge column was placed in a collection tube. • 8) An appropriate amount of RNase-free H2O was added, and the mixture was left to stand at room temperature for 12 min and centrifuged at 14000 g for 1 min. The collected RNA was preserved at −70° C. for later use.
• 1) The mass and concentration of the RNA were detected using NanoDrop™, and an RNA template was prepared as follows: RNase-free H2O was added to 1 μg of RNA to a volume of 10 μL; the mixture was placed at 70° C. for 5 min and then placed in an ice bath for 5 min for later use. • 2) A reaction system was established according to Table 2:
• 3) The reaction system described above was uniformly mixed and centrifuged to collect the liquid at the bottom of a tube, and the mixture was subjected to the procedures of 25° C. for 5 min, 42° C. for 60 min, and 72° C. for 15 min, thereby giving the cDNA product. • 4) A Q-PCR system was prepared according to Table 3, and the level of TOP1 gene was detected:
GAPDH was used as an endogenous reference, and the sequences of the primers used for detection are as follows: […]

TOP1 mRNA [2] = experiment: Dose-dependence of siTOP1-1604 on TOP1 mRNA in HCT116 cells (qPCR); settings: for Relative expression level of TOP1, mean value: 24 h, siNC = 100.00
Procedure: A transfection system was prepared as follows on the day of transfection: siTOP1-1604 was diluted with an appropriate amount of Opti-MEM culture medium; Lipofectamine™ RNAiMAX (Lipo) transfection reagent was diluted with another appropriate amount of Opti-MEM culture medium and left to stand at room temperature for 5 min; and the two dilutions were uniformly mixed, left to stand at room temperature for 5 min, and then added to 24-well cell culture plates at 50 μL/well. PC-3 human prostate cancer cells were added to one of the 24-well cell culture plates at 4×10^5 cells/well, the culture medium being 450 μL of F12K containing 10% FBS; HCT116 human colon cancer cells were added to the other of the 24-well cell culture plates at 3.5×10^5 cells/well, the culture medium being 450 μL of IMDM containing 10% FBS. The cells were uniformly mixed with the siRNA. The final transfection volume was 500 μL, and the working concentrations of the siRNA were 10, 1.67, 0.27, 0.046, 0.0077, 0.0013, and 0.00021 nM. The control groups were Blank (Opti-MEM at the equal volume), Lipofectamine™ RNAiMAX (Lipo) transfection reagent, as well as 10 nM of siNC.
After 24 h of transfection, the cells were collected. The total cellular RNA was extracted according to the method in Example 2, and the level of TOP1 mRNA was detected. […] Nonlinear fitting was performed on the qPCR results using Graphpad software and IC50 of siTOP1 was calculated.

TOP1 mRNA [3] = experiment: Inhibitory effects of modified sequences of siTOP1-1604 on TOP1 mRNA in PC-3 cells; settings: PC-3, siRNA 50 nM, 48 h after transfection, Blank = 100.00
Procedure: PC-3 human prostate cancer cells were transfected with the modified siTOP1 according to the method in Example 2 at a siRNA working concentration of 50 nM. TOP1 mRNA levels were detected 48 h after the transfection. The control groups were Blank (Opti-MEM at the equal volume), Lipofectamine™ RNAiMAX (Lipo) transfection reagent, and the positive control unmodified siTOP-1604.

siTOP1-1604: siRNA targeting TOP1; target SEQ ID NO: 9, sense strand SEQ ID NO: 24, antisense strand SEQ ID NO: 39 (sense GUGUGGACAAGAUCCGGAAUU; antisense UUCCGGAUCUUGUCCACACUU; described as unmodified parent siRNA, further chemistry not given here)
Inhibition of TOP1 expression (TOP1 mRNA [1]): 94.0% | Relative expression level of gene, mean value (TOP1 mRNA [1]; Blank = 100.00, GAPDH reference): 5.97 | Relative expression level of TOP1, mean value (TOP1 mRNA [2]; HCT116, 0.00021 nM): 73.06 | Relative expression level of TOP1, mean value (TOP1 mRNA [2]; HCT116, 0.0013 nM): 74.72 | Relative expression level of TOP1, mean value (TOP1 mRNA [2]; HCT116, 0.0077 nM): 54.01 | Relative expression level of TOP1, mean value (TOP1 mRNA [2]; HCT116, 0.046 nM): 17.23 | Relative expression level of TOP1, mean value (TOP1 mRNA [2]; HCT116, 0.27 nM): 7.57 | Relative expression level of TOP1, mean value (TOP1 mRNA [2]; HCT116, 1.67 nM): 7.91 | Relative expression level of TOP1, mean value (TOP1 mRNA [2]; HCT116, 10 nM): 3.98 | IC50 (TOP1 mRNA [2]; HCT116, 24 h, relative to siNC, nonlinear fit of qPCR results): 6 pM | Relative expression level, mean value (TOP1 mRNA [3]): 4.03
